# Source: patent publication EP4703354A1, “COMPOUND AS CCR6 ANTAGONIST, AND PHARMACEUTICAL COMPOSITION AND USE THEREOF” (Wuhan Createrna Science and Technology Co.,Ltd., priority 2023, dated 2024)
# Legend:
# human CXCR2 = molecular target: T1, human CXCR2 (Homo sapiens, UniProt P25025); assay: human CXCR2 calcium flux activity (FLIPR, HEK293 cells stably expressing human CXCR2, IL-8 stimulation); assay type: cell-based; details: HEK293 cells stably expressing human CXCR2, EC80 human IL-8; read-out: CXCR2 inhibitory activity, IC50
# T1 construct: expressed in transfected cells; host or cells: HEK293
# T1 sequence (P25025 1-360): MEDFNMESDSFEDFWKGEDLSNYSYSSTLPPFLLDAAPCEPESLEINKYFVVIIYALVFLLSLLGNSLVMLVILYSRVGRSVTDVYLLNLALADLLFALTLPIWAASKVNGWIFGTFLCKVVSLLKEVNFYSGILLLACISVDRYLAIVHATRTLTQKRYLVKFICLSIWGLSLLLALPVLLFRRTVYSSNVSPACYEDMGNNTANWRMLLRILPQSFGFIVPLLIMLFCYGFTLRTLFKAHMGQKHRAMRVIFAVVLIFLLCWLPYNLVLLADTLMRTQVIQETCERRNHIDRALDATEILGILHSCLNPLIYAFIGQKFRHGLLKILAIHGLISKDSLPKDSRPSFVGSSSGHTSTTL
# Procedure: The activity of the compounds was evaluated using HEK293 cells stably expressing human CXCR2 via the FLIPR platform. A 384-well black cell culture plate (Greiner, 781946) was used, with a seeding density of 20,000 cells/well, and incubated overnight at 37°C in a 5% CO2 incubator. The culture medium in the cell plate wells was removed, and 20 µL of Fluo-4 Direct™ Calcium Assay Buffer (Invitrogen, F10471, Component C), 20 µL of 2× Fluo-4 Direct™ Calcium Assay Reagent (Invitrogen, F10471, Component A) working solution, and 10 µL of 6× test compound working solution were sequentially added to each well. The cell plate was incubated in a 37 °C, 5% CO2 incubator for 50 min, followed by a 10 min incubation at room temperature. Additionally, a 6×EC80 human IL-8 (Sigma, SRP3311) working solution was prepared. After the incubation was completed, 10 µL/well of the 6×EC80 human IL-8 working solution was transferred to the corresponding cell wells using a FLIPR instrument, and the fluorescence signal changes at an excitation wavelength of 494 nm and an emission wavelength of 516 nm were recorded over 130 s. The difference between the maximum fluorescence signal (RFUMax) and the minimum fluorescence signal (RFUMin) was used as the output signal. The compound inhibition rate and the log value of the compound concentration were calculated, and a four-parameter fitting analysis was performed using GraphPad Prism 8 software to obtain the IC50 value of the test compound. Table 1. Inhibitory activity data of compounds against CCR6 and CXCR2
# [1] = in vitro liver microsome metabolic stability, beagle dog; assay type: in vitro ADME; details: Beagle dog liver microsomes, 37°C
# How it was run: (§1)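 Test compound at 1 µM final (100 µM working solution diluted 1:100) incubated at 37°C with liver microsomes in pH 7.4 phosphate buffer with NADP/G6P/G6PDH/MgCl2 regenerating system; sampled 0–30 min, LC-MS/MS vs internal standard. T1/2 = 0.693/k from remaining-fraction decay.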
# [2] = in vitro liver microsome metabolic stability, mouse; assay type: in vitro ADME; details: Mouse liver microsomes, 37°C
# Procedure: Preparation of working solutions for test compounds and standards: An appropriate amount of the compound was accurately weighed and dissolved in a corresponding volume of suitable solvent to prepare 1 mM stock solutions of the test compounds and standards. The stock solutions were then diluted with appropriate solvent to obtain 100 µM working solutions of the test compounds, ensuring that the DMSO content in the working solutions remained below 10%.
# The internal standard compound testosterone (or tolbutamide) and its corresponding solvent, internal standard concentration (200 ng/mL), were selected based on the properties of the test compound.
# • Solution A: 0.1 mol/L K2HPO4 (2.28 g K2HPO4·3H2O was dissolved in 100 mL of double-distilled water); • Solution B: 0.1 mol/L KH2PO4 (1.36 g KH2PO4 was dissolved in 100 mL of double-distilled water); • 80.2 mL of Solution A and 19.8 mL of Solution B were mixed thoroughly, and the pH was adjusted to 7.4.
# 37.5 mg of glycine was weighed, dissolved in 100 mL of ultrapure water, and adjusted to pH 8.0 with NaOH.
# 1.25 mg of glucose-6-phosphate dehydrogenase (400 U/mg) was weighed (the specific amount weighed was calculated based on the activity of the purchased glucose-6-phosphate dehydrogenase), dissolved in 1 mL of glycine buffer to a concentration of 500 U/mL, aliquoted into 20 µL per tube, and stored at -20°C for future use.
# 7.83 mg of NADP, 0.06 mL of D-glucose-6-phosphate (260 mg/mL), and 10.17 mg of MgCl2·6H2O were precisely weighed.
# The mixture was dissolved in 1 mL of pure water. The cofactor ratio composition: NADP 10 mM, D-glucose-6-phosphate 60 mM, MgCl2·6H2O 50 mM.
# The reaction system (taking a 500 µL system as an example) was composed of the following solution ratios: 416.5 µL phosphate buffer, 5 µL compound working solution, 25 µL liver microsomes, 3.5 µL glucose-6-phosphate dehydrogenase, and 50 µL cofactor solution. The total incubation volume could be adjusted according to experimental requirements.
# 416.5 µL of phosphate buffer was taken, 25 µL of liver microsomes, 3.5 µL of glucose-6-phosphate dehydrogenase, and 50 µL of cofactor solution were added, vortexed twice to mix, and preincubated in a 37°C water bath for 5 minutes. Then, 5 µL of the test compound working solution was added, vortexed twice to mix, each time for 2-3 seconds, and placed in a 37°C water bath to initiate the reaction, with two parallel samples set. At 0.5 min, 1 min, 2 min, 5 min, 15 min, and 30 min after the reaction, 50 µL of the mixture was taken and added to centrifuge tubes containing 200 µL of 0°C pre-cooled internal standard working solution to terminate the reaction, vortexed for 1 minute to mix, and centrifuged at 13,000 rpm for 10 minutes in a 4°C pre-cooled high-speed centrifuge. The supernatant was collected for analysis. After the compound was added and vortex-mixed, 50 µL of the mixture was rapidly transferred to a centrifuge tube containing 200 µL of a pre-cooled (0°C) internal standard working solution to terminate the reaction, vortex-mixed for 1 minute, and used as the relative zero-point sample (relative to the standard group). The sample was then placed into a 37°C water bath to initiate the reaction, and timing was started.
# The sample analysis of the test compound was performed using the liquid chromatography-tandem mass spectrometry (LCMS/MS) method. The semi-quantitative determination was performed using the ratio of the analyte peak area to the internal standard peak area. The retention times of the analyte and internal standard, chromatogram acquisition, and chromatogram integration were processed using Analyst software.
# The in vitro elimination rate constant k of the test compound and the control compound was determined by converting the ratio of the peak area of the test compound to the internal standard into the remaining rate, and T1/2 was then calculated according to the following formula. T1/2 = (Ln2)/(k) = (0.693)/(k) [formula] Table 3. […]
# [3] = in vitro liver microsome metabolic stability, rat; assay type: in vitro ADME; details: Rat liver microsomes, 37°C
# How it was run: as §1
# [4] = in vitro liver microsome metabolic stability, human; assay type: in vitro ADME; details: Human liver microsomes, 37°C
# How it was run: as §1
SMILES,IC50 (human CXCR2) [µM],Liver microsome T1-2 (min) Beagle dog [1] [min],Liver microsome T1-2 (min) Mouse [2] [min],Liver microsome T1-2 (min) Rat [3] [min],Liver microsome T1-2 (min) Human [4] [min]
"CN(C)C(=O)c1nccc(Nc2c(N[C@@H](C#CC3CCC3)[C@]3(C)CC(F)(F)CO3)c(=O)c2=O)c1O (single isomer, unassigned) [110A]",0.297,358.15,1597.63,292.82,641.85
"CN(C)C(=O)c1nccc(Nc2c(N[C@@H](c3nc(Cl)ccc3F)[C@@]3(C)CC(F)(F)CO3)c(=O)c2=O)c1O [068B, 4-((2-(((S)-(6-chloro-3-fluoropyridin-2-yl)((R)-4,4-difluoro-2-methyltetrahydrofuran-2-yl)methyl)amino)-3,4-dioxocyclobut-1-en-1-yl)amino)-3-hydroxy-N,N-dimethylpicolinamide]",7.63,199.34,65.23,570.62,995.19
"Cc1cc(F)cnc1[C@H](Nc1c(Nc2ccnc(C(=O)N(C)C)c2O)c(=O)c1=O)[C@]1(C)CC(F)(F)CO1 [093A, 4-((2-(((S)-((S)-4,4-difluoro-2-methyltetrahydrofuran-2-yl)(5-fluoro-3-methylpyridin-2-yl)methyl)amino)-3,4-dioxocyclobut-1-en-1-yl)amino)-3-hydroxy-N,N-dimethylpicolinamide]",> 100,104.27,,110.15,359.51
"CN(C)C(=O)c1nccc(Nc2c(N[C@@H](c3cccc(Cl)n3)C3(C)CCCC3)c(=O)c2=O)c1O [compound 003, (R)-4-((2-(((6-chloropyridin-2-yl)(1-methylcyclopentyl)methyl)amino)-3,4-dioxocyclobut-1-en-1-yl)amino)-3-hydroxy-N,N-dimethylpicolinamide]",2.21,,,93.67,511.95
"CN(C)C(=O)c1nccc(Nc2c(N[C@@H](c3ccc(F)cn3)C3(C)CCCC3)c(=O)c2=O)c1O [compound 005, (R)-4-((2-(((5-fluoropyridin-2-yl)(1-methylcyclopentyl)methyl)amino)-3,4-dioxocyclobut-1-en-1-yl)amino)-3-hydroxy-N,N-dimethylpicolinamide]",1.25,254.48,1188.6,101.29,431.17
"CN(C)C(=O)c1nccc(Nc2c(N[C@@H](c3ncc(F)cc3F)C3(C)CCCC3)c(=O)c2=O)c1O [compound 009, (R)-4-((2-(((3,5-difluoropyridin-2-yl)(1-methylcyclopentyl)methyl)amino)-3,4-dioxocyclobut-1-en-1-yl)amino)-3-hydroxy-N,N-dimethylpicolinamide]",2.43,89.42,178.84,62.30,225.37
"Cc1cccnc1[C@H](Nc1c(Nc2ccc(Cl)c(C(=O)N(C)C)c2O)c(=O)c1=O)C1(C)CCCC1 [compound 063, (R)-6-chloro-2-hydroxy-N,N-dimethyl-3-((2-(((1-methylcyclopentyl)(3-methylpyridin-2-yl)methyl)amino)-3,4-dioxocyclobut-1-en-1-yl)amino)benzamide]",15.3,202.25,≥120,20.71,296.47
"CN(C)C(=O)c1nccc(Nc2c(N[C@@H](c3cccc(CF)n3)C3(C)CCCC3)c(=O)c2=O)c1O [compound 108, (R)-4-((2-(((6-(fluoromethyl)pyridin-2-yl)(1-methylcyclopentyl)methyl)amino)-3,4-dioxocyclobut-1-en-1-yl)amino)-3-hydroxy-N,N-dimethylpicolinamide]",0.74,63.57,,124.28,458.54
"CC#C[C@H](Nc1c(Nc2ccnc(C(=O)N(C)C)c2O)c(=O)c1=O)C1(C)CCCC1 [compound 113, (R)-3-hydroxy-N, N-dimethyl-4-((2-((1-(1-methylcyclopentyl)but-2-yn-1-yl)amino)-3,4-dioxocyclobut-1-en-1-yl)amino)picolinamide]",1.48,520.59,,124.51,577.09
"CC#C[C@H](Nc1c(Nc2ccc(Cl)c(C(=O)N(C)C)c2O)c(=O)c1=O)C1(C)CCCC1 [compound 114, (R)-6-chloro-2-hydroxy-N, N-dimethyl-3-((2-((1-(1-methylcyclopentyl)but-2-yn-1-yl)amino)-3,4-dioxocyclobut-1-en-1-yl)amino)benzamide]",1.45,489.6,361.28,120.25,392.83
